Assay results: US12133714B2, “Line excitation array detection microscopy” (BOARD OF REGENTS, THE UNIVERSITY OF TEXAS SYSTEM, priority 2018, dated 2024)
Entries after “also recorded” stand apart in the source; their conditions may differ.

Columns and labels:
[1] = tested on: polyQ40 strain C. elegans (polyglutamine mediated aggregation of YFP-labeled protein in body wall muscle cells); assay: LEAD flow cytometry imaging of polyQ aggregation model C. elegans treated with drug; type: in vivo; settings: for number of fluorescent protein aggregates per animal (median ± standard deviation): polyQ40 animals treated at L1 stage, imaged at late L4 stage, untreated polyQ40 27±3
Description: The model simulates human Huntington's disease through CAG repeats in the huntingtin allele, with 35 or more repeats resulting in polyglutamine (polyQ) mediated aggregation, protein misfolding, and cellular toxicity^36. Specifically, the polyQ40 strain was imaged with 40 CAG repeats at the late L4 stage when the disease phenotype presents as aggregation of YFP-labeled protein in the body wall muscle cells. The aggregates are 1-5 μm in diameter and distributed in 3D along the length of the animal, and therefore requires relatively high resolution volumetric imaging. […] Populations of up to 300 animals were imaged. The animals moved at 0.89±0.31 m/s through the imaging channel, resulting in an imaging time of 1.07±0.26 ms per animal with the majority of the population imaged within 1 second (See FIGS. 10B, 10C). The maximum available laser power of 4 mW at the sample was sufficient to utilize the full dynamic range of our collection system. […] Despite the ultrafast scanning, C. elegans images show SNRs exceeding 500 for the center PMT elements and slightly lower SNR for the less responsive surrounding elements in accordance with the PMT specifications (see FIG. 9D). 27±3 (median±standard deviation) aggregates per animal for the polyQ40 strain were found, similar to previous findings for worms at the same stage^36. […] PolyQ40 animals were treated with either 25 or 50 μM dronedarone at the L1 stage, and were imaged at the late L4 stage (FIG. 16A). The drug reduced aggregation to 16±5 and 7±2 aggregates per animal for 25 μM and 50 μM, respectively, showing a dose response (FIG. 16B). The system's high-speed 3D imaging capability for drug screening is established by the short imaging time for the effectivity of dronedarone reaches a statistically significant level—animals treated with 25 and 50 μM dronedarone reach p=0.001 in under 0.25 s and 0.10 s, respectively (FIG. 16C). […]

[2] = tested on: polyQ40 strain C. elegans (polyglutamine mediated aggregation of YFP-labeled protein in body wall muscle cells); settings: polyQ40 animals, earlier publication (ref. 37); cited from earlier work

CCCCc1oc2ccc(NS(C)(=O)=O)cc2c1C(=O)c1ccc(OCCCN(CCCC)CCCC)cc1 [dronedarone]
number of fluorescent protein aggregates per animal (median ± standard deviation) ([1]; 25 μM): 16±5 aggregates per animal | number of fluorescent protein aggregates per animal (median ± standard deviation) ([1]; 50 μM): 7±2 aggregates per animal | effect on formation of protein aggregates (in words) ([1]; polyQ40 animals, 25 and 50 μM, LEAD imaging): prevents the formation of protein aggregates with a dose response; also recorded: can reduce aggregation with a dose response | effect on formation of aggregates, previously observed (in words) [2]: prevents the formation of aggregates in the polyQ40 animals
